Experimental data: the kinase profiling compilation of Christmann-Franck et al. (2016)

How the values were obtained:
Assay in all cases: KINOMEscan competition binding
Conditions in all cases: compound 10.0 µM
[1] = target: AAK1 (human) (UniProt Q2M2I8)
[2] = target: ACVRL1 (human) (UniProt P37023)
[3] = target: CAMK2A (human) (UniProt Q9UQM7)
[4] = target: CAMKK2 (human) (UniProt Q96RR4)
[5] = target: CDK14 (human) (UniProt O94921)
[6] = target: CRK2 (P.falciparum) (UniProt P61075)
[7] = target: CSK (human) (UniProt P41240)
[8] = target: CSNK1A1 (human) (UniProt P48729)
Sequence of CSNK1A1 (human) (P48729 whole entry, looked up): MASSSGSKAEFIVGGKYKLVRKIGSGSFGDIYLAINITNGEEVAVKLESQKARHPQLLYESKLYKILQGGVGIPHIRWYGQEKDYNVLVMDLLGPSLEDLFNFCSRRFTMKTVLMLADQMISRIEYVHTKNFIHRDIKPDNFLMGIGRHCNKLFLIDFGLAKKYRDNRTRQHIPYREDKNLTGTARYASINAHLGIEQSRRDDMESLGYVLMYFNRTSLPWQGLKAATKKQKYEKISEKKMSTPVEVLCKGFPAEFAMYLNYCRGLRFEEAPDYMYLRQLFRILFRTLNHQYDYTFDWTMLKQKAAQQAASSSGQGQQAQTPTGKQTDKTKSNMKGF

[9] = target: DAPK2 (human) (UniProt Q9UIK4)
[10] = target: DCLK3 (human) (UniProt Q9C098)
[11] = target: DDR1 (human) (UniProt Q08345)
[12] = system: EGFR (human), P00533 [752-759 del]
[13] = system: EIF2AK4 KD2 (human), Q9P2K8 [S808G]
[14] = target: ERBB3 (human) (UniProt P21860)
[15] = system: FLT3 (human), P36888 [D835H]
[16] = system: FLT3 (human), P36888 [D835Y]
[17] = system: FLT3 (human), P36888 [K663Q]
[18] = target: ICK (human) (UniProt Q9UPZ9)
Sequence of ICK (human) (Q9UPZ9 whole entry, looked up): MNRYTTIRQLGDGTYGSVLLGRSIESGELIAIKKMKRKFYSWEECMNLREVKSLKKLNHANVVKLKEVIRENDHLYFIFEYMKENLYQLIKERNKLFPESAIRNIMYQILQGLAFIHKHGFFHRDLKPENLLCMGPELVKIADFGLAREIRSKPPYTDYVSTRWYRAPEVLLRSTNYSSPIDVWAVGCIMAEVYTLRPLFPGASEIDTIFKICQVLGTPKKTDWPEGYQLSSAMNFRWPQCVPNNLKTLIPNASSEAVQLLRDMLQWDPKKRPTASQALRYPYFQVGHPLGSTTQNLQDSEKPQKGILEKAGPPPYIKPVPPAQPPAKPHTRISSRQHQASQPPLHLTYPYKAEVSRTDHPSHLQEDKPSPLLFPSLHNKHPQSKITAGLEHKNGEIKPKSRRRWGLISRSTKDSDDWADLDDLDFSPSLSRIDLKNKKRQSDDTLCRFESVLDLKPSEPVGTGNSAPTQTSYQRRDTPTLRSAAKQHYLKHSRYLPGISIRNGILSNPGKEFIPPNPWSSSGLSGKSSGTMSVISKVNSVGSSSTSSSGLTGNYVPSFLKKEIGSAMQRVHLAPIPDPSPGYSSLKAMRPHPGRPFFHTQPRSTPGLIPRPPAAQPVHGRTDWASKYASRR

[19] = target: IRAK3 (human) (UniProt Q9Y616)
[20] = target: JAK1 JH1 catalytic (human) (UniProt P23458)
[21] = target: JAK1 JH2 pseudokinase (human) (UniProt P23458)
[22] = target: LCK (human) (UniProt P06239)
Sequence of LCK (human) (P06239 whole entry, looked up): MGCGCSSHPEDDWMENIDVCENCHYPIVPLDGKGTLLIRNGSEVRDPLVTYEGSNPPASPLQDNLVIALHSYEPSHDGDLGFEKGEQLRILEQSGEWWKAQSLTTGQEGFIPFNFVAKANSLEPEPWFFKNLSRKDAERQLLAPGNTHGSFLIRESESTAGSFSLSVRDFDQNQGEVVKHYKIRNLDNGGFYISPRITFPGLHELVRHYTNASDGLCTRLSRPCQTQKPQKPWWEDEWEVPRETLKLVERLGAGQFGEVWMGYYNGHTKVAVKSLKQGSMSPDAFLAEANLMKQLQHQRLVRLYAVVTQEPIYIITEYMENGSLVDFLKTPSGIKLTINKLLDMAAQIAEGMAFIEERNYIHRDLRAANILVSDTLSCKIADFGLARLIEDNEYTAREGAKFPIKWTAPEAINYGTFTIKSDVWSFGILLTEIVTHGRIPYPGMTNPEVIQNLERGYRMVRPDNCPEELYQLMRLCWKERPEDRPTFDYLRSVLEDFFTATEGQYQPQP

[23] = target: MAK (human) (UniProt P20794)
[24] = target: MAP2K1 (human) (UniProt Q02750)
Sequence of MAP2K1 (human) (Q02750 whole entry, looked up): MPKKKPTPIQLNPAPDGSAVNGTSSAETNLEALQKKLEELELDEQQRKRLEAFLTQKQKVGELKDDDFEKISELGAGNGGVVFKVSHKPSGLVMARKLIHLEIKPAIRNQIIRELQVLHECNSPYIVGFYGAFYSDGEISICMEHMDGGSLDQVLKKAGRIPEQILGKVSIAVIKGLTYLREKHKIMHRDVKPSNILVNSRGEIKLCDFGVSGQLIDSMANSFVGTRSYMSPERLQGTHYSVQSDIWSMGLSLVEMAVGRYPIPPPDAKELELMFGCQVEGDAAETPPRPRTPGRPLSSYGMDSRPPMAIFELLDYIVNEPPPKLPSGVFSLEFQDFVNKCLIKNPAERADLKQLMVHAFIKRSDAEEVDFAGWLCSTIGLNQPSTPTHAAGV

[25] = target: MAP4K5 (human) (UniProt Q9Y4K4)
[26] = target: MAPK1 (human) (UniProt P28482)
Sequence of MAPK1 (human) (P28482 whole entry, looked up): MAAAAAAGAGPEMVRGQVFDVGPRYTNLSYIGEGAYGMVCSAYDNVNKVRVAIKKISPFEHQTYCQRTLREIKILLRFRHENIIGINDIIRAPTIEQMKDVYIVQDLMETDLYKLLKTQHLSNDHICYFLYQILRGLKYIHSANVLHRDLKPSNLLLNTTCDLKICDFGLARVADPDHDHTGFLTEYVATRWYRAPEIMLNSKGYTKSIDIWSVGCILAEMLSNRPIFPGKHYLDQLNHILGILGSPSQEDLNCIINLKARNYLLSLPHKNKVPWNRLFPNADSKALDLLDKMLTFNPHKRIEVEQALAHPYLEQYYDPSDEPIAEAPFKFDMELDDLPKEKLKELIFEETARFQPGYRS

[27] = target: MAPK14 (human) (UniProt Q16539)
[28] = target: MET (human) (UniProt P08581)
[29] = target: MKNK1 (human) (UniProt Q9BUB5)
Sequence of MKNK1 (human) (Q9BUB5 whole entry, looked up): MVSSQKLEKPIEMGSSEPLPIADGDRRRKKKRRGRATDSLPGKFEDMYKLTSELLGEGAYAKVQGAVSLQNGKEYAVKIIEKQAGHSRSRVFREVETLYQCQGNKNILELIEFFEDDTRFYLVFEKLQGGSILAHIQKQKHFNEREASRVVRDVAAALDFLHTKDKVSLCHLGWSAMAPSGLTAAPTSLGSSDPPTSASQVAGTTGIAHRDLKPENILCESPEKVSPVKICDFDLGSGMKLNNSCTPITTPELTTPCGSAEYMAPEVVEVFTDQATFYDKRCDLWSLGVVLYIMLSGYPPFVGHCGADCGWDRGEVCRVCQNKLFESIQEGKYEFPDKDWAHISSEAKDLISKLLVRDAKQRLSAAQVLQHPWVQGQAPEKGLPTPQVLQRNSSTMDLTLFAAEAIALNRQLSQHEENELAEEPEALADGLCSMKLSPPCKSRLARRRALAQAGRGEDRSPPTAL

[30] = target: MYLK3 (human) (UniProt Q32MK0)
[31] = target: NEK6 (human) (UniProt Q9HC98)
Sequence of NEK6 (human) (Q9HC98 whole entry, looked up): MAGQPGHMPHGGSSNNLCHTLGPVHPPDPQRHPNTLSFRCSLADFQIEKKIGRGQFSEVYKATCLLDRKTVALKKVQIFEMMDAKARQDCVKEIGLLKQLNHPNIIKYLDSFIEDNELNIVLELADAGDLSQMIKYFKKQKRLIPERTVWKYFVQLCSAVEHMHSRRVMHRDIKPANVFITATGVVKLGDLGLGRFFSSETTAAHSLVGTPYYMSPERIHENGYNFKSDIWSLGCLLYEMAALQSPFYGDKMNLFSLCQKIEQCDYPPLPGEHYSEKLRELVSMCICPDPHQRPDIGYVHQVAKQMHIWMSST

[32] = target: NUAK2 (human) (UniProt Q9H093)
Sequence of NUAK2 (human) (Q9H093 whole entry, looked up): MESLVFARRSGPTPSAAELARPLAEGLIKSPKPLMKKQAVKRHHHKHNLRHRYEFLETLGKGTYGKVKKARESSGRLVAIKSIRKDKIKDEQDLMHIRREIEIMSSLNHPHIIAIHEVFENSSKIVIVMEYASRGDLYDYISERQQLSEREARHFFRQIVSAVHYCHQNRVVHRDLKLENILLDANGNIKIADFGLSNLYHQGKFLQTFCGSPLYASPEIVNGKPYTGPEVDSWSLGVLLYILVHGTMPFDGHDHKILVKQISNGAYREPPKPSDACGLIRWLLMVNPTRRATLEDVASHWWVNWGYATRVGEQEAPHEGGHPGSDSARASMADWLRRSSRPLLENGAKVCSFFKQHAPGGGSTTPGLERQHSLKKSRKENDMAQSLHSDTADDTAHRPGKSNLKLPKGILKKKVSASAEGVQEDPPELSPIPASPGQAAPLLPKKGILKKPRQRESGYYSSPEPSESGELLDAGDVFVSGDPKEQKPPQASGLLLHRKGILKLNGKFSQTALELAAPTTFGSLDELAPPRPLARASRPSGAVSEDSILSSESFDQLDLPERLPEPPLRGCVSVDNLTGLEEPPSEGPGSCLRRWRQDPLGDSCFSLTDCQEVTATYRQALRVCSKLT

[33] = system: PIK3CA (human), P42336 [E545K]
[34] = target: PIK3CB (human) (UniProt P42338)
[35] = target: PIK3CD (human) (UniProt O00329)
[36] = target: PLK3 (human) (UniProt Q9H4B4)
[37] = system: RET (human), P07949 [V804L]
[38] = target: STK39 (human) (UniProt Q9UEW8)
[39] = target: STK4 (human) (UniProt Q13043)
[40] = target: TEC (human) (UniProt P42680)
[41] = target: TNK1 (human) (UniProt Q13470)
[42] = target: TYK2 JH2 pseudokinase (human) (UniProt P29597)
Sequence of TYK2 JH2 pseudokinase (human) (P29597 whole entry, looked up): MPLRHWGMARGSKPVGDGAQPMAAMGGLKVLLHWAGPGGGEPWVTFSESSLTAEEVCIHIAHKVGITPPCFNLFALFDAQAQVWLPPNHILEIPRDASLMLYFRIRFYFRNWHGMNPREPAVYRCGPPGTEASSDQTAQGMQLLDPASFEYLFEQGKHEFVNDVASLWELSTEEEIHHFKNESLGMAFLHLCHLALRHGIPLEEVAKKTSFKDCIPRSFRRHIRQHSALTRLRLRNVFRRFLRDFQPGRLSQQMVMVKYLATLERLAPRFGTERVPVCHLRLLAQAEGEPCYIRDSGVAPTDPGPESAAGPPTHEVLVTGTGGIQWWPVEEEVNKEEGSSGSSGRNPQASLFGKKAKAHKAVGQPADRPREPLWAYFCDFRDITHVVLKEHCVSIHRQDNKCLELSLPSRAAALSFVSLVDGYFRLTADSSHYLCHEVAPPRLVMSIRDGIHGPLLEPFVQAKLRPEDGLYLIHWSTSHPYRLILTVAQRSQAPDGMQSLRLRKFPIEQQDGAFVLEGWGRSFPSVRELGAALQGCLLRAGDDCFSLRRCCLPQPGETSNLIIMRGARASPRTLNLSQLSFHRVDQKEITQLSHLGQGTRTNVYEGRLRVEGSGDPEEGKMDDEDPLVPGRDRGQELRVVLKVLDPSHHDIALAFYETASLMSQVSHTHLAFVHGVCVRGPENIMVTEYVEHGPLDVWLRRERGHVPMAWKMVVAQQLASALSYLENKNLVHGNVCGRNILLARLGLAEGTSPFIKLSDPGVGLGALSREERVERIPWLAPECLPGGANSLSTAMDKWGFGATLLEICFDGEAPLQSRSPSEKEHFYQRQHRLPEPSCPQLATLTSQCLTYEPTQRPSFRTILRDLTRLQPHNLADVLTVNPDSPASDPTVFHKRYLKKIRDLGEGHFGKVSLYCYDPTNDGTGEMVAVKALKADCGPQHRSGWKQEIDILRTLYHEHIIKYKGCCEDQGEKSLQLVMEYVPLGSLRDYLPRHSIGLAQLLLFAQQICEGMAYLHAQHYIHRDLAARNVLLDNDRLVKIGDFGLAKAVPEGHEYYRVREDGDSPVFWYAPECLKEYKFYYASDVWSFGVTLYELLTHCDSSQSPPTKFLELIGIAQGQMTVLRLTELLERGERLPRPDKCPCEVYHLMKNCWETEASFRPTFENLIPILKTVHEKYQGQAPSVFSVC

## Cc1ccc(NC(=O)c2ccc(NC(=O)/C=C/CN(C)C)cc2)cc1Nc1nccc(-c2cccnc2)n1
[1]
  kinase still bound, per cent of control: 63%
[2]
  kinase still bound, per cent of control: 100%
[3]
  kinase still bound, per cent of control: 93%
[4]
  kinase still bound, per cent of control: 56%
[5]
  kinase still bound, per cent of control: 100%
[6]
  kinase still bound, per cent of control: 100%
[7]
  kinase still bound, per cent of control: 100%
[8]
  kinase still bound, per cent of control: 55%
[9]
  kinase still bound, per cent of control: 82%
[10]
  kinase still bound, per cent of control: 100%
[11]
  kinase still bound, per cent of control: 0.15%
[12]
  kinase still bound, per cent of control: 54%
[13]
  kinase still bound, per cent of control: 100%
[14]
  kinase still bound, per cent of control: 100%
[15]
  kinase still bound, per cent of control: 66%
[16]
  kinase still bound, per cent of control: 33%
[17]
  kinase still bound, per cent of control: 84%
[18]
  kinase still bound, per cent of control: 82%
[19]
  kinase still bound, per cent of control: 28%
[20]
  kinase still bound, per cent of control: 100%
[21]
  kinase still bound, per cent of control: 5.1%
[22]
  kinase still bound, per cent of control: 54%
[23]
  kinase still bound, per cent of control: 100%
[24]
  kinase still bound, per cent of control: 95%
[25]
  kinase still bound, per cent of control: 93%
[26]
  kinase still bound, per cent of control: 82%
[27]
  kinase still bound, per cent of control: 66%
[28]
  kinase still bound, per cent of control: 100%
[29]
  kinase still bound, per cent of control: 88%
[30]
  kinase still bound, per cent of control: 97%
[31]
  kinase still bound, per cent of control: 44%
[32]
  kinase still bound, per cent of control: 69%
[33]
  kinase still bound, per cent of control: 96%
[34]
  kinase still bound, per cent of control: 100%
[35]
  kinase still bound, per cent of control: 95%
[36]
  kinase still bound, per cent of control: 46%
[37]
  kinase still bound, per cent of control: 85%
[38]
  kinase still bound, per cent of control: 82%
[39]
  kinase still bound, per cent of control: 100%
[40]
  kinase still bound, per cent of control: 100%
[41]
  kinase still bound, per cent of control: 8.7%
[42]
  kinase still bound, per cent of control: 14%
